Measurements as given in paper PMC10885153, “Membrane Permeability in a Large Macrocyclic Peptide Driven by a Saddle-Shaped Conformation” (Journal of the American Chemical Society, 2024).
Positions of bridges follow the written chain, without caps; N, C: chain ends. Non-standard residues stand in square brackets, D forms with d. Residues, ends and D or L forms follow the SMILES beside them. Cha = N[C@@H](CC1CCCCC1)C(=O)O; NMeNva = CCC[C@H](NC)C(=O)O; NMeAbu = CC[C@H](NC)C(=O)O; NMeC = CN[C@@H](CS)C(=O)O; NMeA = CN[C@@H](C)C(=O)O; Nva = CCC[C@H](N)C(=O)O; Abu = CC[C@H](N)C(=O)O; NPrGly = CCCNCC(=O)O; NEtG = CCNCC(=O)O

Settings: PAMPA, 10 µM, pH 7.4

%R_avg	Pe_avg	SMILES
12.8%		CCC[C@@H]1NC(=O)[C@H](C)N(C)C(=O)[C@H](CC(C)C)NC(=O)CSC[C@@H](C(=O)OCC)N(C)C(=O)[C@H](CC(C)C)NC(=O)[C@H](C)N(C)C(=O)[C@H](CC(C)C)NC(=O)CN(CC)C(=O)[C@H]2CCCN2C1=O [LA05, O=C(N(C)[C@H](C(OCC)=O)CSCC(N[C@H](C(N(C)[C@@H](C)C(N[C@@H](CCC)C(N1[C@H](CCC1)C(N(CC)CC(N[C@H]2CC(C)C)=O)=O)=O)=O)=O)CC(C)C)=O)[C@H](CC(C)C)NC([C@H](C)N(C)C2=O)=O] ({CH2CO}-L[NMeA][Nva][dP][NEtG]L[NMeA]L[NMeC]-OEt; thioether N-9)
5.1%		CCOC(=O)[C@@H]1CSCC(=O)N[C@@H](CC(C)C)C(=O)N(C)[C@@H](C)C(=O)N[C@@H](CC(C)C)C(=O)N2CCC[C@@H]2C(=O)N(CC)CC(=O)N[C@@H](CC(C)C)C(=O)N(C)[C@@H](C)C(=O)N[C@@H](CC(C)C)C(=O)N1C [LA06, O=C(N(C)[C@H](C(OCC)=O)CSCC(N[C@H](C(N(C)[C@@H](C)C(N[C@@H](CC(C)C)C(N1[C@H](CCC1)C(N(CC)CC(N[C@H]2CC(C)C)=O)=O)=O)=O)=O)CC(C)C)=O)[C@H](CC(C)C)NC([C@H](C)N(C)C2=O)=O] ({CH2CO}-L[NMeA]L[dP][NEtG]L[NMeA]L[NMeC]-OEt; thioether N-9)
13.0%	0 ×10⁻⁶ cm/s	CCOC(=O)[C@@H]1CSCC(=O)N[C@@H](CC(C)C)C(=O)N(C)[C@@H](C)C(=O)N[C@@H](CC(C)C)C(=O)N2CCC[C@@H]2C(=O)N(CC)CC(=O)N[C@@H](CC2CCCCC2)C(=O)N(C)[C@@H](C)C(=O)N[C@@H](CC(C)C)C(=O)N1C [LA10, O=C(N(C)[C@H](C(OCC)=O)CSCC(N[C@H](C(N(C)[C@@H](C)C(N[C@@H](CC(C)C)C(N1[C@H](CCC1)C(N(CC)CC(N[C@H]2CC3CCCCC3)=O)=O)=O)=O)=O)CC(C)C)=O)[C@H](CC(C)C)NC([C@H](C)N(C)C2=O)=O] ({CH2CO}-L[NMeA]L[dP][NEtG][Cha][NMeA]L[NMeC]-OEt; thioether N-9)
6.5%		CCC[C@@H]1NC(=O)[C@H](C)N(C)C(=O)[C@H](CC(C)C)NC(=O)CSC[C@@H](C(=O)OCC)N(C)C(=O)[C@H](CC(C)C)NC(=O)[C@H](C)N(C)C(=O)[C@H](CC2CCCCC2)NC(=O)CN(CCC)C(=O)[C@H]2CCCN2C1=O [LA11, O=C(N(C)[C@H](C(OCC)=O)CSCC(N[C@H](C(N(C)[C@@H](C)C(N[C@@H](CCC)C(N1[C@H](CCC1)C(N(CCC)CC(N[C@H]2CC3CCCCC3)=O)=O)=O)=O)=O)CC(C)C)=O)[C@H](CC(C)C)NC([C@H](C)N(C)C2=O)=O] ({CH2CO}-L[NMeA][Nva][dP][NPrGly][Cha][NMeA]L[NMeC]-OEt; thioether N-9)
9.2%	0 ×10⁻⁶ cm/s	CCCN1CC(=O)N[C@@H](CC2CCCCC2)C(=O)N(C)[C@@H](C)C(=O)N[C@@H](CC(C)C)C(=O)N(C)[C@H](C(=O)OCC)CSCC(=O)N[C@@H](CC(C)C)C(=O)N(C)[C@@H](C)C(=O)N[C@@H](CC(C)C)C(=O)N2CCC[C@@H]2C1=O [LA12, O=C(N(C)[C@H](C(OCC)=O)CSCC(N[C@H](C(N(C)[C@@H](C)C(N[C@@H](CC(C)C)C(N1[C@H](CCC1)C(N(CCC)CC(N[C@H]2CC3CCCCC3)=O)=O)=O)=O)=O)CC(C)C)=O)[C@H](CC(C)C)NC([C@H](C)N(C)C2=O)=O] ({CH2CO}-L[NMeA]L[dP][NPrGly][Cha][NMeA]L[NMeC]-OEt; thioether N-9)
62.4%		CCC[C@@H]1NC(=O)CN(CC)C(=O)[C@H](CC(C)C)NC(=O)CSC[C@@H](C(=O)OCC)N(C)C(=O)[C@H](CC(C)C)NC(=O)[C@H](C)N(C)C(=O)[C@H](CC)NC(=O)[C@H](C)N(C)C(=O)[C@H]2CCCN2C1=O [LB01, O=C(N(C)[C@H](C(OCC)=O)CSCC(N[C@H](C1=O)CC(C)C)=O)[C@H](CC(C)C)NC([C@H](C)N(C)C([C@H](CC)NC([C@H](C)N(C)C([C@@H]2N(C([C@H](CCC)NC(CN1CC)=O)=O)CCC2)=O)=O)=O)=O] ({CH2CO}-L[NEtG][Nva][dP][NMeA][Abu][NMeA]L[NMeC]-OEt; thioether N-9)
61.4%		CCC[C@@H]1NC(=O)CN(CCC)C(=O)[C@H](CC(C)C)NC(=O)CSC[C@@H](C(=O)OCC)N(C)C(=O)[C@H](CC(C)C)NC(=O)[C@H](C)N(C)C(=O)[C@H](CC)NC(=O)[C@H](C)N(C)C(=O)[C@H]2CCCN2C1=O [LB03, O=C(N(C)[C@H](C(OCC)=O)CSCC(N[C@H](C1=O)CC(C)C)=O)[C@H](CC(C)C)NC([C@H](C)N(C)C([C@H](CC)NC([C@H](C)N(C)C([C@@H]2N(C([C@H](CCC)NC(CN1CCC)=O)=O)CCC2)=O)=O)=O)=O] ({CH2CO}-L[NPrGly][Nva][dP][NMeA][Abu][NMeA]L[NMeC]-OEt; thioether N-9)
12.6%		CCOC(=O)[C@@H]1CSCC(=O)N[C@@H](CC(C)C)C(=O)N(CC)CC(=O)N[C@@H](CC(C)C)C(=O)N2CCC[C@@H]2C(=O)N(C)[C@@H](C)C(=O)N[C@@H](CC(C)C)C(=O)N(C)[C@@H](C)C(=O)N[C@@H](CC(C)C)C(=O)N1C [LB06, O=C(N(C)[C@H](C(OCC)=O)CSCC(N[C@H](C1=O)CC(C)C)=O)[C@H](CC(C)C)NC([C@H](C)N(C)C([C@H](CC(C)C)NC([C@H](C)N(C)C([C@@H]2N(C([C@H](CC(C)C)NC(CN1CC)=O)=O)CCC2)=O)=O)=O)=O] ({CH2CO}-L[NEtG]L[dP][NMeA]L[NMeA]L[NMeC]-OEt; thioether N-9)
8.0%		CCOC(=O)[C@@H]1CSCC(=O)N[C@@H](CC(C)C)C(=O)N(CC)CC(=O)N[C@@H](CC(C)C)C(=O)N2CCC[C@@H]2C(=O)N(C)[C@@H](C)C(=O)N[C@@H](CC2CCCCC2)C(=O)N(C)[C@@H](C)C(=O)N[C@@H](CC(C)C)C(=O)N1C [LB10, O=C(N(C)[C@H](C(OCC)=O)CSCC(N[C@H](C1=O)CC(C)C)=O)[C@H](CC(C)C)NC([C@H](C)N(C)C([C@H](CC2CCCCC2)NC([C@H](C)N(C)C([C@@H]3N(C([C@H](CC(C)C)NC(CN1CC)=O)=O)CCC3)=O)=O)=O)=O] ({CH2CO}-L[NEtG]L[dP][NMeA][Cha][NMeA]L[NMeC]-OEt; thioether N-9)
20.3%		CCC[C@@H]1NC(=O)[C@H](C)N(C)C(=O)[C@H](CC(C)C)NC(=O)CSC[C@@H](C(=O)OCC)N(C)C(=O)[C@H](CC(C)C)NC(=O)[C@H](C)N(C)C(=O)[C@H](CC)NC(=O)[C@H](CCC)N(C)C(=O)[C@H]2CCCN2C1=O [LC03, O=C(N(C)[C@H](C(OCC)=O)CSCC(N[C@H](C(N(C)[C@@H](C)C(N[C@@H](CCC)C(N1[C@H](CCC1)C(N(C)[C@@H](CCC)C(N[C@H]2CC)=O)=O)=O)=O)=O)CC(C)C)=O)[C@H](CC(C)C)NC([C@H](C)N(C)C2=O)=O] ({CH2CO}-L[NMeA][Nva][dP][NMeNva][Abu][NMeA]L[NMeC]-OEt; thioether N-9)
4.6%		CCOC(=O)[C@@H]1CSCC(=O)N[C@@H](CC(C)C)C(=O)N(C)[C@@H](C)C(=O)N[C@@H](CC(C)C)C(=O)N2CCC[C@@H]2C(=O)N(C)[C@@H](CC)C(=O)N[C@@H](CC(C)C)C(=O)N(C)[C@@H](C)C(=O)N[C@@H](CC(C)C)C(=O)N1C [LC06, O=C(N(C)[C@H](C(OCC)=O)CSCC(N[C@H](C(N(C)[C@@H](C)C(N[C@@H](CC(C)C)C(N1[C@H](CCC1)C(N(C)[C@@H](CC)C(N[C@H]2CC(C)C)=O)=O)=O)=O)=O)CC(C)C)=O)[C@H](CC(C)C)NC([C@H](C)N(C)C2=O)=O] ({CH2CO}-L[NMeA]L[dP][NMeAbu]L[NMeA]L[NMeC]-OEt; thioether N-9)
4.6%		CCC[C@H]1C(=O)N[C@@H](CC(C)C)C(=O)N(C)[C@@H](C)C(=O)N[C@@H](CC(C)C)C(=O)N(C)[C@H](C(=O)OCC)CSCC(=O)N[C@@H](CC(C)C)C(=O)N(C)[C@@H](C)C(=O)N[C@@H](CC(C)C)C(=O)N2CCC[C@@H]2C(=O)N1C [LC08, O=C(N(C)[C@H](C(OCC)=O)CSCC(N[C@H](C(N(C)[C@@H](C)C(N[C@@H](CC(C)C)C(N1[C@H](CCC1)C(N(C)[C@@H](CCC)C(N[C@H]2CC(C)C)=O)=O)=O)=O)=O)CC(C)C)=O)[C@H](CC(C)C)NC([C@H](C)N(C)C2=O)=O] ({CH2CO}-L[NMeA]L[dP][NMeNva]L[NMeA]L[NMeC]-OEt; thioether N-9)

SMILES	%R_avg	Pe_avg
CCC[C@@H]1NC(=O)[C@H](C)N(C)C(=O)[C@H](CC(C)C)NC(=O)CSC[C@@H](C(=O)OCC)N(C)C(=O)[C@H](CC(C)C)NC(=O)[C@H](C)N(C)C(=O)[C@H](CC)NC(=O)[C@H](CC)N(C)C(=O)[C@H]2CCCN2C1=O [LC01, O=C(N(C)[C@H](C(OCC)=O)CSCC(N[C@H](C(N(C)[C@@H](C)C(N[C@@H](CCC)C(N1[C@H](CCC1)C(N(C)[C@@H](CC)C(N[C@H]2CC)=O)=O)=O)=O)=O)CC(C)C)=O)[C@H](CC(C)C)NC([C@H](C)N(C)C2=O)=O] ({CH2CO}-L[NMeA][Nva][dP][NMeAbu][Abu][NMeA]L[NMeC]-OEt; thioether N-9)	30.1%	
CCC[C@@H]1NC(=O)[C@H](C)N(C)C(=O)[C@H](CC(C)C)NC(=O)CSC[C@@H](C(=O)OCC)N(C)C(=O)[C@H](CC(C)C)NC(=O)[C@H](C)N(C)C(=O)[C@H](CC(C)C)NC(=O)[C@H](CC)N(C)C(=O)[C@H]2CCCN2C1=O [LC05, O=C(N(C)[C@H](C(OCC)=O)CSCC(N[C@H](C(N(C)[C@@H](C)C(N[C@@H](CCC)C(N1[C@H](CCC1)C(N(C)[C@@H](CC)C(N[C@H]2CC(C)C)=O)=O)=O)=O)=O)CC(C)C)=O)[C@H](CC(C)C)NC([C@H](C)N(C)C2=O)=O] ({CH2CO}-L[NMeA][Nva][dP][NMeAbu]L[NMeA]L[NMeC]-OEt; thioether N-9)	7.6%	
CCOC(=O)[C@@H]1CSCC(=O)N[C@@H](CC(C)C)C(=O)N(C)[C@@H](C)C(=O)N[C@@H](CC(C)C)C(=O)N2CCC[C@@H]2C(=O)N(C)[C@@H](CC)C(=O)N[C@@H](CC2CCCCC2)C(=O)N(C)[C@@H](C)C(=O)N[C@@H](CC(C)C)C(=O)N1C [LC10, O=C(N(C)[C@H](C(OCC)=O)CSCC(N[C@H](C(N(C)[C@@H](C)C(N[C@@H](CC(C)C)C(N1[C@H](CCC1)C(N(C)[C@@H](CC)C(N[C@H]2CC3CCCCC3)=O)=O)=O)=O)=O)CC(C)C)=O)[C@H](CC(C)C)NC([C@H](C)N(C)C2=O)=O] ({CH2CO}-L[NMeA]L[dP][NMeAbu][Cha][NMeA]L[NMeC]-OEt; thioether N-9)	10.5%	
